We go through five substances from patent US7361735B2, “LITAF binding site peptides and methods of using the same” (Trustees of Boston University, priority 2003, dated 2008).

Experiment [1] relates to mtTNFP1 (−991 to 1Δ−515 to −511). Kind of experiment: Luciferase reporter assay, full-length TNF-α promoter lacking CTCCC, THP-1. The experiment is classed as cell-based, human. The settings on record: 1 μg/ml peptide via Chariot or 100 ng/ml LPS, FIG. 6a. As to the method:
(§1) FIGS. 6a and 6b are graphical representations of the transcriptional activity of a series of deletion constructs of TNF-α promoter DNA. FIG. 6a depicts the activity measured due to either the promoter wtTNFβ (−991 to 1) or mtTNFβ1 (−991 to 1Δ−515 to −511). pGL3-basic transfected cell as unstimulated control was used. After transfection of DNAs for 3 hrs, the cells were washed with PBS twice, and stimulated with 100 ng/ml LPS (E. coli) or transfected with Chariot/peptide complex of 1 μg/ml of either peptide A, B, C, or HA. Triplicate assays were performed. Values are normalized by β-gal production and graphed. FIG. 6b depicts the activity measured due to the promoter mtTNFβ2 (−550 to −487 plus TATA box) or mtTNFβ3 (−550 to −487Δ−515 to −511 plus TATA box). LPS or peptides as stimuli and controls were used at the same condition as described above.
(§2) The following series of hTNF-α promoter DNA fragments were subcloned (FIG. 1b) into the pGL3-Basic vector, which has a promoterless and enhancerless luciferase reporter gene, available from Pharmacia: 1. wtTNFP (−991 to 1) was generated by PCR with primer pairs: 5′-[…]-3′ (SEQ ID NO: 20′) and 5′-[…]-3′(SEQ ID NO: 21′). 2. mtTNFP1 (−991 to 1Δ−515 to −511). The first in-frame mutant hTNF-α promoter was generated by PCR with primer pairs, 5′-[…]-3′(SEQ ID NO: 20) and 5′-[…] (SEQ ID NO: 22). The second mutant DNA was generated by PCR with primer pairs, 5′-[…]-3′ (SEQ ID NO: 23) and 5′-[…]-3′ (SEQ ID NO: 21). Both first and second DNA fragments above were purified and diluted as template to 1 ng/reaction and finally amplified by PCR with primer pairs, 5′-[…]-3′ (SEQ ID NO: 20) and 5′-[…]-3′ (SEQ ID NO: 21). […]
(§3) THP-1 cells (5×10^6/well) were induced to maturation by addition of […] (Sigma) and incubated at 37° C., 5% CO2 for 20 hrs, washed with PBS twice, co-transfected with 1 μg DNAs by using Fugene 6 (Roche Molecular Biochemicals) for 3 hrs, washed with PBS, then individually transfected with Chariot/peptide complex of 1 μg/ml peptide A, B, C or HA or stimulated with 100 ng/ml LPS (E. coli) for 3 hrs, washed with PBS, incubated at 37° C., 5% CO2, overnight. […] Luciferase activity in the lysates was measured using a commercial kit (Luciferase Reporter Assay System, Promega) and normalized by β-gal assay in the same lysates as described (McClane et al., Hum. Gene Ther. 10:739-746, 1997).
(§4) To determine whether the short sequence CTCCC (−515 to −511) in the hTNF-a promoter is responsible for hLITAF binding activity, a series of hTNF-α promoter/reporter constructs were cloned (see FIG. 1b) and individually transiently transfected into THP-1 cells. […] TNF-α promoter activity was subsequently analyzed using the luciferase assay. […]

For experiment [2], the system named is mtTNFP2 (−550 to −487 plus TATA Box). As to the kind of experiment: Luciferase reporter assay, short TNF-α promoter fragment with LITAF binding site, THP-1. The experiment is classed as cell-based, human. The note with it: 1 μg/ml peptide via Chariot or 100 ng/ml LPS, in comparison with the HA control, FIG. 6b. As to the method:
as §1, §2, §3, §4

The subject of a further experiment is THP-1 cells. Kind of experiment: ELISA of hTNF-α after Chariot delivery of peptide. The experiment is classed as cell-based, human. The note with it: PMA-matured THP-1; Chariot/peptide 1, 10, 100 ng/ml or 1 μg/ml; 24 hours; ELISA of supernatant. As to the method: FIG. 5 is a graphical representation of the production of TNF-α in THP-1 cells after transfection of peptide A, B, C, or HA with Chariot as described herein. The concentration of active of TNF-α was induced by various concentrations of peptide and measured by duplicate ELISA tests at the same condition and graphed.
THP-1 cells were induced to maturation by addition of […] (Sigma) and incubated at 37° C., 5% CO2 for 20 hrs, then washed with PBS twice, and stimulated (delivered) with Chariot/peptide complex of various concentrations of either peptide A or B or C or HA in a 96-well plate at 2×10^4 cells/well as indicated in the text. After 24 hrs of incubation at 37° C., 5% CO2, culture supernatants were harvested, centrifuged at 1,500×g to remove cell debris, then TNF-α was measured by ELISA (ABRAXIS, Hatboro, Pa.) and quantified on a Model 680 Microplate Reader (BioRad).
Therefore, peptides A, B, and C, were synthesized based on the amino acid sequence of hLITAF. […] After pretreatment with PMA, peptides A, B, C, or HA were introduced into THP-1 cells using Chariot, as described herein, in concentrations of 1, 10, 100 ng/ml or 1 μg/ml. After 24 hours, culture supernatants were harvested and TNF-α was quantified by ELISA. […] In contrast, peptide B increased TNF-α secretion by as much as 2.4 fold over unstimulated levels.

The test system of the next experiment is wtTNFP (−991 to 1). Kind of experiment: Luciferase reporter assay, wild type full-length TNF-α promoter, THP-1. Type of experiment: cell-based, human. The note with it: 1 μg/ml peptide via Chariot or 100 ng/ml LPS, normalized by β-gal, peptide B compared with HA-stimulated cells. As for the experimental part: as §1, §2, §3, §4
Experiment [3] relates to COS-7 cells (wild-type p53). Kind of experiment: Northern blot of LITAF transcript after LPS, COS-7. The experiment is classed as cell-based. The note with it: LPS 500 ng/ml for 4 hrs. As to the method: (§5) FIGS. 7a and 7b show the analysis of the accumulation of p53 and induction of LITAF mRNA. […] 60 μg of crude cell lysate was loaded per lane and separated on an 8% SDS-PAGE, which were then transferred to Immobilon-P. The protein blots were probed individually with monoclonal antibodies specific for p53 (DO-1, Santa cruz) or with goat polyclonal antibodies for actin (C-11, Santa cruz). p53 proteins were expressed well in lanes 2 through 4. […] Cells were incubated with 100 or 500 ng/ml of LPS for 4 or 24 hrs. Total cellular RNA was purified by using the Oligotex mRNA Kit (Qiagen). mRNA was size-fractionated on a denaturing formaldehyde-agarose gel (1.1%) and transferred onto a Hybond-N^+ membrane (Amersham). These filters were hybridized with an γ-^32P ATP-labeled DNA probe and then autoradiographed with BIOMAX MR film (Kodak).
(§6) The accumulation of p53 after LPS stimulation was investigated.

Experiment [4] has as its system mtTNFP3 (−550 to −487Δ−515 to −511 plus TATA Box). Kind of experiment: Luciferase reporter assay, short TNF-α promoter fragment lacking LITAF binding site, THP-1. Type of experiment: cell-based, human. The note with it: 100 ng/ml LPS, FIG. 6b. As to the method: as §1, with “above. […]” for “above.”
as §4

The test system of experiment [5] is WTK-1 cells (p53-deficient cell line). Kind of experiment: Northern blot of LITAF transcript after LPS, WTK-1. The note with it: WTK-1 p53-deficient cells. Type of experiment: cell-based. As for the experimental part: as §5, §6
In experiment [6] the test system is wtTNFβ, TNF-α promoter from −991 to 1. As to the kind of experiment: Luciferase reporter assay, wild-type TNF-α promoter, WTK-1. Type of experiment: cell-based. The note with it: WTK-1 cells; normalized to β-gal; LITAF overexpressed alone without LPS stimulation. An excerpt: (§7) FIG. 10 is a graphical representation of the analysis of LITAF function in luciferase reporter constructs. The series of TNF-α promoter DNA fragments were subcloned into the pGL3 basic vector (Pharmacia), a promoterless and enhancerless luciferase reporter gene. One construct, named wtTNFβ, contained TNF-α promoter from −991 to 1. Another one, mtTNFβ1, was a mutant inserted with the promoter from −991 to 1, but lacking the LITAF binding site. WTK-1 cells (grown to 85% confluence) in a 6-well plate at 1.2×10^5 cells/well were co-transfected with 1 μg DNAs including pCMV-LITAF recombinant vector, pVMVβ-gal and pGL3 basic as control by Fugene 6 (Roche Molecular Biochemicals) for 3 hrs, washed with PBS twice, then individually stimulated with LPS or Chariot/peptide complex of 100 ng/ml peptide B (peptide fragment of LITAF representing aa 152-228) or HA as control for 3 hrs, washed with PBS, incubated at 37° C., 5% CO2, o/n. The β-galactosidase gene was included in all transfections. The cells were harvested and lysed approximately 12 hrs after transfection. The promoter activity from each lysate sample was measured using the luciferase reporter assay system (Promega) and normalized to β-gal expression in the same sample, as described in the methods section below.
(§8) The activation of TNF-α gene expression by LITAF was investigated. […]

The subject of the next experiment is COS-7 cells. Kind of experiment: TUNEL analysis of DNA fragmentation of apoptotic cells. The experiment is classed as cell-based. As to the method:
FIG. 8 depicts the TUNEL analysis of DNA fragmentation of apoptotic COS-7 cells in response to LPS. After LPS stimulation, cells were fixed in 4% methanol-free formaldehyde solution for 30 min at room temperature, then permeated with 0.1% Triton X-100 for 2 min at 4° C. After washing with PBS, the samples were stained according to the manufacturer's recommended protocol for TUNEL (Promega.). The fragmentation of apoptotic COS-7 cell nuclei was analyzed by fluorescence microscopy (panels g, f, or h). The corresponding field was also observed by standard phase contrast microscopy (panels a, b, or c).
Since the induction of LITAF follows the accumulation of p53 (FIG. 7a), the DNA fragmentation of apoptotic COS-7 cells after 4 hrs with LPS stimulation was investigated.

Experiment [7] concerns COS-7 cells (wild-type p53). Kind of experiment: Western blot of p53 accumulation after LPS. The experiment is classed as cell-based. The note with it: LPS 500 ng/ml for 4 hrs. As to the method:
as §5, §6

In experiment [8] the test system is mtTNFβ1, promoter from −991 to 1 lacking the LITAF binding site. As to the kind of experiment: Luciferase reporter assay, mutant TNF-α promoter lacking LITAF binding site, WTK-1. The experiment is classed as cell-based. The settings on record: WTK-1 cells; LPS stimulation.
Excerpt: as §7, §8

In the case of SQTWREPGAAGSPFHL [peptide B], the “promoter activity (luciferase), mutant TNF-α promoter lacking the CTCCC motif” value in experiment [1] is given as “no appreciable induction”. Besides, the “expression of luciferase, shorter reporter plasmid containing the LITAF binding site” value (“expression of luciferase” for short) in [2] is given as 2.3 fold. Further, in the experiment on THP-1 cells, the “TNF-α secretion over unstimulated levels” value is recorded as no more than 2.4 fold. Moreover, in the experiment on wtTNFP (−991 to 1), the “hTNF-α promoter activity (luciferase expression), wild type promoter” value (“hTNF-α promoter activity” below) is listed as roughly 2 fold.

Regarding Lipopolysaccharide [LPS], the LITAF transcript entry in experiment [3] is listed as “detected”. The “promoter activity (luciferase), mutant TNF-α promoter lacking the CTCCC motif” value in experiment [1] was “similarly activated”. For the same substance, the “expression of luciferase” value in [2] is given as “strongly dependent on the presence of the LITAF binding site”. Besides, the “activation of shorter reporter plasmid lacking the LITAF binding site” value in [4] is “activation not observed”. The LITAF transcription result in [5] is recorded as “did not induce LITAF transcription”. In addition, the “TNF-α promoter activity (luciferase), wild-type promoter/reporter plasmid” value in [6] is recorded as “similarly activated”. The “apoptosis (TUNEL)” value in the experiment with COS-7 cells (100 ng/ml of LPS) is “did not induce apoptosis”. The “TUNEL-positive (apoptotic) cells” value with COS-7 cells (500 ng/ml LPS for at least 4 hrs) is “significantly increased”. Further, the “hTNF-α promoter activity” value with wtTNFP (−991 to 1) was “similarly activated”. Besides, the “inducible p53 protein” value in experiment [7] is “detected”. Moreover, the “TNF-α promoter activity (luciferase), mutant promoter/reporter plasmid” value in experiment [8] is listed as “similarly activated”.

As for LSSSFTPGGGSALVVS [peptide C], the “promoter activity (luciferase), mutant TNF-α promoter lacking the CTCCC motif” value in [1] is given as “no appreciable induction”. In addition, the “expression of luciferase” value in [2] was “unable to activate”. The “TNF-α secretion over unstimulated levels” value with THP-1 cells is listed as “did not induce any significant TNF-α secretion”. Moreover, the “hTNF-α promoter activity” value in the experiment with wtTNFP (−991 to 1) was “did not result in any significant increase”.

As to YPYDVPDYASL [HA, reference compound], the “TNF-α secretion over unstimulated levels” value with THP-1 cells is “did not induce any significant TNF-α secretion”.

Take “SYYTQPAPIPNNNPIT VQTVY (SYYTQPAPIPNNNPITVQTVY) [peptide A]”: the “promoter activity (luciferase), mutant TNF-α promoter lacking the CTCCC motif” value in experiment [1] is “no appreciable induction”. In experiment [2], the “expression of luciferase” value is “unable to activate”. For the same substance, the “TNF-α secretion over unstimulated levels” value in the experiment with THP-1 cells is “did not induce any significant TNF-α secretion”. The “hTNF-α promoter activity” value in the experiment on wtTNFP (−991 to 1) is given as “did not result in any significant increase”.
